The text below walks through data of patent US20210380623A1, “PRODRUG GALACTOSIDE INHIBITOR OF GALECTINS” (GALECTO BIOTECH AB, priority 2018, published 2021).

Converted amounts (≈) assume the structure as drawn.

In general, solubility refers to how much of the substance goes into solution per volume. One may read the Kd as the concentration at which binding is half-saturated.

One data set can be described thus: aqueous solubility. The data set is classed as physicochemical. The conditions noted are these: water.
The target in the next data set is Galectin-3 (Homo sapiens, UniProt P17931). Nature of the data set: fluorescence anisotropy assay, inhibition of galectin / fluorescein tagged saccharide probe interaction. The data set is classed as binding. To be noted: for Kd: fluorescence anisotropy; for affinity towards the corresponding galectin (in words): pro-drug itself. A general note: Polarisation of emitted light reports the rotation of a fluorescent probe.
Chain of Galectin-3 (P17931 whole entry): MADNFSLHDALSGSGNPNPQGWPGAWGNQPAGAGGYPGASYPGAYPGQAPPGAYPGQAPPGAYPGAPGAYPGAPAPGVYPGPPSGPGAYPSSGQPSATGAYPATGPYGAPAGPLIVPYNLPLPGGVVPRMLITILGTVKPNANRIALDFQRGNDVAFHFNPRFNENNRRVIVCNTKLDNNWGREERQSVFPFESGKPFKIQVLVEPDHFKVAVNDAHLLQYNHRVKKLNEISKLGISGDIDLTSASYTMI

Another data set relates to galectins. To be noted: cited from earlier work.
The nature of data set [1]: mouse PK experiments, plasma exposure of Ref 1 after p.o. administration. The data set is classed as in vivo. The conditions noted are these: for exposure in mice PK after per oral administration: mouse, p.o., 20, 40, 80 and 160 mg/kg, plasma exposure of Ref 1.

In the case of `O=P(O)(O)OCO[C@@H]1[C@@H](n2cc(-c3cc(F)c(Cl)c(F)c3)nn2)[C@@H](O)[C@@H](CO)O[C@@H]1Sc1cncc(Br)c1` [Example 9, 5-Bromopyridin-3-yl 3-[4-(4-chloro-3,5-difluorophenyl)-1H-1,2,3-triazol-1-yl]-3-deoxy-2-O-[(phosphonooxy)methyl]-1-thio-α-D-galactopyranoside], the solubility in “aqueous solubility” was determined as 800 µg/mL (≈ 1.21 mM). For the same molecule, the equilibrium dissociation constant (Kd) at Galectin-3 worked out at 0.007 µM.
On Galectin-3, `O=S(=O)(O)OC1C(n2cc(-c3cc(F)c(F)c(F)c3)nn2)[C@@H](O)C(CO)O[C@@H]1Sc1ccc(Cl)c(Cl)c1` (stereo partly drawn) [Example 4, 3,4-Dichlorphenyl 3-Deoxy-3-[4-(3,4,5-trifluorophenyl)-1H-1,2,3-triazol-1-yl]-2-O-sulfo-1-thio-α-D-galactopyranoside] yielded a Kd of 0.014 µM.
In the data set “aqueous solubility”, `O=P(O)(O)OC[C@H]1O[C@H](Sc2cncc(Br)c2)[C@H](O)[C@@H](n2cc(-c3cc(F)c(F)c(F)c3)nn2)[C@H]1O` [Example 1, 5-Bromopyridin-3-yl 3-deoxy-3-[4-(3,4,5-trifluorophenyl)-1H-1,2,3-triazol-1-yl]-6-O-phospho-1-thio-α-D-galactopyranoside] had a solubility of 8500 µg/mL (≈ 13.9 mM). Besides, at Galectin-3, binding was put at a Kd of 35 µM and the “affinity towards the corresponding galectin (in words)” value was “low”.
Turning to `O=C[C@H](O)[C@@H](O)[C@@H](O)[C@H](O)CO` [D-galactose], the “affinity, times lower than lactose” value in the data set on galectins (relative to lactose) is on record as 50-100 times.
The molecule `O=S(=O)(O)OC[C@H]1O[C@H](Sc2cncc(Br)c2)[C@H](O)[C@@H](n2cc(-c3cc(F)c(F)c(F)c3)nn2)[C@H]1O` [Example 6, 5-Bromopyridin-3-yl 3-Deoxy-3-[4-(3,4,5-trifluorophenyl)-1H-1,2,3-triazol-1-yl]-6-O-sulfo-1-thio-α-D-galactopyranoside] registered a solubility in the data set “aqueous solubility” of 9600 µg/mL (≈ 15.7 mM). Also, binding on Galectin-3 was put at a Kd of 27 µM.
With `OC[C@H]1O[C@H](Sc2cncc(Br)c2)[C@H](O)[C@@H](n2cc(-c3cc(F)c(F)c(F)c3)nn2)[C@H]1O` [Ref 1, 5-Bromopyridin-3-yl 3-deoxy-3-[4-(3,4,5-trifluorophenyl)-1H-1,2,3-triazol-1-yl]-1-thio-α-D-galactopyranoside, reference compound], in “aqueous solubility”, the solubility came out at 7 µg/mL (≈ 0.0131 mM). For the same molecule, the oral availability result in data set [1] (mouse PK, some formulations, dosed above 10 mg/kg) is listed as “limited oral availability”.
Regarding `OC[C@H]1O[C@H](Sc2ccc(Cl)c(Cl)c2)[C@H](O)[C@@H](n2cc(-c3cc(F)c(F)c(F)c3)nn2)[C@H]1O` [Ref 2, 3,4-Dichlorophenyl 3-deoxy-3-[4-(3,4,5-trifluorophenyl)-1H-1,2,3-triazol-1-yl]-1-thio-α-D-galactopyranoside, reference compound], the solubility in the data set “aqueous solubility” came to 37 µg/mL (≈ 0.0708 mM).
As for `OC[C@H]1O[C@@H](O[C@H]2[C@H](O)[C@@H](O)C(O)O[C@@H]2CO)[C@H](O)[C@@H](O)[C@H]1O` (stereo partly shown) [lactose], on galectins (read-out: Kd, all galectins), the Kd is 500 to 1000 µM.
Turning to `O=P(O)(O)OCO[C@@H]1[C@@H](n2cc(-c3cc(F)c(F)c(F)c3)nn2)[C@@H](O)[C@@H](CO)O[C@@H]1Sc1cncc(Br)c1` [Example 8, 5-Bromopyridin-3-yl 3-deoxy-3-[4-(3,4,5-trifluorophenyl)-1H-1,2,3-triazol-1-yl]-2-O-[(phosphonooxy)methyl]-1-thio-α-D-galactopyranoside], in the data set “aqueous solubility”, the solubility is above 10000 µg/mL. In data set [1], the “exposure in mice PK after per oral administration” value was “dose correlated exposure”. On Galectin-3, this molecule displayed a dissociation constant (Kd) of 0.01 µM.
For `OC[C@H]1O[C@H](Sc2cncc(Br)c2)[C@H](O)[C@@H](n2cc(-c3cc(F)c(Cl)c(F)c3)nn2)[C@H]1O` [Ref 3, 5-Bromopyridin-3-yl 3-deoxy-3-[4-(4-chloro-3,5-difluorophenyl)-1H-1,2,3-triazol-1-yl]-1-thio-α-D-galactopyranoside, reference compound], the concentration in solution in the data set “aqueous solubility” (solubility) came to 7 µg/mL (≈ 0.0127 mM).
On to `O=S(=O)(O)O[C@@H]1[C@@H](n2cc(-c3cc(F)c(F)c(F)c3)nn2)[C@@H](O)[C@@H](CO)O[C@@H]1Sc1cncc(Br)c1` [Example 5, 5-Bromopyridin-3-yl 3-Deoxy-3-[4-(3,4,5-trifluorophenyl)-1H-1,2,3-triazol-1-yl]-2-O-sulfo-1-thio-α-D-galactopyranoside], for which, at Galectin-3, the Kd was 0.004 µM.
Take `O=P(O)(O)OCOC[C@H]1O[C@H](Sc2cncc(Br)c2)[C@H](O)[C@@H](n2cc(-c3cc(F)c(F)c(F)c3)nn2)[C@H]1O` [Example 7, 5-Bromopyridin-3-yl 3-deoxy-3-[4-(3,4,5-trifluorophenyl)-1H-1,2,3-triazol-1-yl]-6-O-[(phosphonooxy)methyl]-1-thio-α-D-galactopyranoside]: the solubility in “aqueous solubility” is above 10000 µg/mL. Moreover, the “exposure in mice PK after per oral administration” value in data set [1] is on record as “dose correlated exposure”. Moreover, at Galectin-3, the Kd came out at 15 µM and the “affinity towards the corresponding galectin (in words)” value is “low”.
As for `O=P(O)(O)O[C@@H]1[C@@H](n2cc(-c3cc(F)c(F)c(F)c3)nn2)[C@@H](O)[C@@H](CO)O[C@@H]1Sc1ccc(Cl)c(Cl)c1` [Example 3, 3,4-Dichlorophenyl 3-deoxy-3-[4-(3,4,5-trifluorophenyl)-1H-1,2,3-triazol-1-yl]-2-O-phospho-1-thio-α-D-galactopyranoside], at Galectin-3, binding was characterised by a dissociation constant (Kd) of 0.007 µM.
In turn, `O=P(O)(O)O[C@@H]1[C@@H](n2cc(-c3cc(F)c(F)c(F)c3)nn2)[C@@H](O)[C@@H](CO)O[C@@H]1Sc1cncc(Br)c1` [Example 2, 5-Bromopyridin-3-yl 3-deoxy-3-[4-(3,4,5-trifluorophenyl)-1H-1,2,3-triazol-1-yl]-2-O-phospho-1-thio-α-D-galactopyranoside] showed a solubility in the data set “aqueous solubility” of 9800 µg/mL (≈ 16 mM). The molecule further showed a dissociation constant (Kd) at Galectin-3 of 0.006 µM.
